# Results from PubChem BioAssay (NCI).
# Values joined by “and” are separate entries in the source; they are usually repeats but may differ in a detail not shown here. Identical values can stand only once.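 Each compound was tested at five concentrations against cells in 96-well plates for 48 hours. GI50 marks 50% less growth. The concentration for full growth arrest is given as TGI.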
# Key:
# Assay in all cases: NCI tumour cell line growth inhibition, 48 h
# DU-145 prostate = tested on: DU-145 prostate
# HCT-15 colon = tested on: HCT-15 colon
# LOX IMVI melanoma = tested on: LOX IMVI melanoma
# MDA-MB-231 breast = tested on: MDA-MB-231 breast
# NCI-H226 lung = tested on: NCI-H226 lung
# NCI-H522 lung = tested on: NCI-H522 lung
# PC-3 prostate = tested on: PC-3 prostate
# SK-MEL-28 melanoma = tested on: SK-MEL-28 melanoma
# SW-620 colon = tested on: SW-620 colon
# UACC-257 melanoma = tested on: UACC-257 melanoma
SMILES,GI50 (DU-145 prostate) [µM],TGI (DU-145 prostate) [µM],GI50 (HCT-15 colon),TGI (HCT-15 colon),GI50 (LOX IMVI melanoma),TGI (LOX IMVI melanoma) [µM],GI50 (MDA-MB-231 breast),TGI (MDA-MB-231 breast) [µM],GI50 (NCI-H226 lung) [µM],TGI (NCI-H226 lung),GI50 (NCI-H522 lung),TGI (NCI-H522 lung),GI50 (PC-3 prostate),TGI (PC-3 prostate) [µM],GI50 (SK-MEL-28 melanoma),TGI (SK-MEL-28 melanoma) [µM],GI50 (SW-620 colon),TGI (SW-620 colon) [µM],GI50 (UACC-257 melanoma),TGI (UACC-257 melanoma)
COc1ccc(CN(C)c2ccc(CO)c(Cl)c2)cc1,34.2,> 100,21 µM,> 100 µM,27.9 µM,> 100,22.7 µM,> 88.8,0.125,0.279 µM,22.4 µM,> 80.7 µM,20.7 µM,> 100,24.6 µM,> 100,4.53 µM,> 100,0.318 µM,1.22 µM
O=C1c2ccccc2-c2c1c1ccccc1c(=O)n2CCCNCCCn1ccnc1,0.318,2.07,0.44 µM,10.1 µM,0.45 µM,1.78,2.68 µM,7.36,0.186,0.436 µM,1.66 µM,9.29 µM,1.58 µM,9.75,2.94 µM,8.92,0.24 µM,1.82,4.62 µM,23.1 µM
COc1cc(OC)c(/C=C/S(=O)(=O)Cc2cnc(OC)c(N)c2)c(OC)c1,< 0.0202,> 100,< 0.019 µM,> 100 µM,< 0.0233 µM,> 100,< 0.0276 µM,> 100,> 40.1,> 100 µM,< 0.01 µM,,< 0.0187 µM,> 100,20.4 µM,> 100,< 0.0188 µM,> 100,> 62 µM,> 100 µM
COc1ccc(N2C(=O)CC(Cl)C2=O)cc1 (configuration not stated),,> 100,,33.2 µM,,58.9,,36.5,,46.4 µM,,36.5 µM,,> 100,,30.2,,35.2,,29.7 µM
CC(C)c1ccc(C(=O)Nc2nc3ccc(O)cc3s2)cc1,1.7,> 100,0.274 µM,> 100 µM,0.2 µM,29.5,1.97 µM,> 100,5.16,50.4 µM,0.693 µM,> 100 µM,3.23 µM,> 100,0.628 µM,> 100,0.552 µM,> 100,1.51 µM,> 100 µM
O=c1ccn(C2OC(CO)C(O)C2F)c(=O)[nH]1 (configuration not stated),> 1000,> 1000,> 1000 µM,> 1000 µM,> 1000 µM,> 1000,> 1000 µM,> 1000,> 1000,> 1000 µM,> 1000 µM,> 1000 µM,> 1000 µM,> 1000,> 1000 µM,> 1000,> 1000 µM,> 1000,> 1000 µM,> 1000 µM
CC12OC(c3ccccc3)=CC(c3ccc(Cl)cc3)=C1C(c1ccccc1)=CC2=O (configuration not stated),> 100,> 100,26.3 µM,> 100 µM,46 µM,> 100,67.2 µM,> 100,68.1,> 100 µM,72.2 µM,> 100 µM,34.4 µM,> 100,66.5 µM,> 100,90.4 µM,> 100,49.3 µM,> 100 µM
Cc1ccccc1NC(=O)N/C(N)=N/c1nc(-c2cccc([N+](=O)[O-])c2)cs1,3.35,65.1,1.56 µM,34.6 µM,1.79 µM,5.17,1.6 µM,4.03,2.17,7.02 µM,1.79 µM,> 100 µM,2.66 µM,> 100,2.55 µM,> 100,2.3 µM,> 100,4.85 µM,> 100 µM
CC[C@H](NC(=O)[C@H](C)NC)C(=O)N1C[C@@H](O)C[C@H]1Cc1c(-c2[nH]c3cc(F)ccc3c2C[C@@H]2C[C@H](O)CN2C(=O)[C@H](CC)NC(=O)[C@H](C)NC)[nH]c2cc(F)ccc12,> 100,> 100,> 100 µM,> 100 µM,> 59.6 µM,> 100,0.0349 µM,2.18,> 100,> 100 µM,8.21 µM,35.1 µM,> 100 µM,> 100,> 100 µM,> 100,> 100 µM,> 100,0.0431 µM,> 100 µM
CC(=O)CC(=O)Nc1ccc2ccccc2c1,,> 100,,> 100 µM,,> 100,,> 100,,> 100 µM,,> 100 µM,,> 100,,> 100,,> 100,,> 100 µM
COC(=O)CCc1cc(OC)c2c(c1)C(C(=O)OC)C(c1ccc(OC)c(OC)c1)O2 (configuration not stated),> 100,> 100,,> 100 µM,> 100 µM and 12.1 µM,> 100,> 100 µM and 21.4 µM,> 100,,> 100 µM and 54.5 µM,> 100 µM and 19.9 µM,> 100 µM,> 100 µM and 28.8 µM,> 100,21.9 µM and > 100 µM,> 100,> 100 µM and 17.3 µM,> 100,,> 100 µM
CCOC(=O)C(Cc1c[nH]c2ccc(N)cc12)(NC(C)=O)C(=O)OCC,> 1000,> 1000,> 1000 µM,> 1000 µM,> 1000 µM,> 1000,> 1000 µM,> 1000,> 1000,> 1000 µM,> 1000 µM,> 1000 µM,> 1000 µM,> 1000,> 1000 µM,> 1000,> 1000 µM,> 1000,> 1000 µM,> 1000 µM
O=S(=O)(NC1=NCCN1C(=S)SN1CCn2c1nsc2=S)c1ccc(Br)cc1,28.9,> 100,31.8 µM,> 100 µM,19.4 µM,39.6,28.8 µM,> 100,40.2,> 100 µM,15 µM,36.8 µM,30.8 µM,> 100,72.5 µM,> 100,24.2 µM,73,46.6 µM,> 100 µM
CC1=C2[C@@H](CC1)[C@]1(C)O[C@@](C3CCCCC3)(C[C@H]1OC(=O)CO)[C@H]2OC(=O)/C=C/c1ccccc1,9.68,23.4,5.23 µM,15.7 µM,5.31 µM,11.2,18.3 µM,41.5,7.58,23.5 µM,7.71 µM,22.5 µM,6.33 µM,21.2,9.53 µM,27.1,9.26 µM,25.1,12.3 µM,26 µM
Cn1ccnc1CC(C)(O)c1ccccc1 (configuration not stated),,> 100,,> 100 µM,,> 100,,> 100,,> 100 µM,,> 100 µM,,> 100,,> 100,,> 100,,> 100 µM
O=C(O[C@H]1CN[C@H](C#Cc2cc3ncnc(Nc4ccc5c(ccn5Cc5cc(F)ccc5F)c4)c3s2)C1)N1CCOCC1,2.17,5.52,3.55 µM,17.5 µM,3.5 µM,9.28,1.97 µM,9.81,3.2,9.64 µM,0.147 µM,4.1 µM,5.52 µM,> 23.7,4.06 µM,7.98,5.16 µM,15.1,4.2 µM,10.6 µM
COc1ccc(/C=N\NC(=O)CN2CCN(c3cc4c(cc3F)c(=O)c(C(=O)N/N=C/c3ccc(OC)c(OC)c3)cn4C3CC3)CC2)cc1OC,3.54,12,> 100 µM,> 100 µM,3.22 µM,11.3,2.33 µM,6.31,4.44,24 µM,3.66 µM,> 100 µM,2.76 µM,9.53,2 µM,3.86,3.33 µM,16.8,3.38 µM,37.6 µM
Cc1c[nH]c2c(O)cc3c(c12)[C@H](CCl)CN3C(=O)c1cc2cc(NC(=O)Nc3ccc4[nH]c(C(=O)N5C[C@@H](CCl)c6c5cc(O)c5[nH]cc(C)c65)cc4c3)ccc2[nH]1,0.000923,,47.9 µM and 0.000888 µg/mL,> 100 µM and 0.00213 µg/mL,0.00117 µM,,0.0176 µM,54.6,,15.9 µM,4.49 nM and 8.9e-07 µg/mL,20.2 nM and 2e-06 µg/mL,0.023 µM,,,,0.0068 µM,,1.27 ng/mL,42.4 µM and 0.00318 µg/mL
O=C(/C=C/c1ccc(F)cc1)c1ccc(Cl)cc1Cl,53.4,> 100,43.8 µM,> 100 µM,41.1 µM,> 100,> 100 µM,> 100,> 100,> 100 µM,47.7 µM,> 100 µM,31.3 µM,96.8,,,29.7 µM,79.2,68.3 µM,> 100 µM
